Values joined by “and” are separate entries in the source; they are usually repeats but may differ in a detail not shown here. Equal entries are not always repeated. Where two headings read alike, the source gives them in different places.
Experiments:
[1] = target: human ERβ ligand binding domain (LBD) (Homo sapiens, UniProt Q92731); assay: competitive fluorometric; conditions: for β/α: ratio of RBA ERβ to RBA ERα
ERα = ERα (Homo sapiens, UniProt P03372); assay: cell-based; assay type: cell-based; conditions: for Agonist Mode ERα Eff (%E2): maximal response as percentage of response to 10^−8 M E2, HEK293T; for transcriptional activity profile on ERα: reporter gene assay
ERβ = ERβ (Homo sapiens, UniProt Q92731); assay: cell-based; assay type: cell-based; conditions: for Emax: HEK-293T, 24 h, read-out: Agonist Mode ERβ Eff (%E2); for transcriptional activity profile on ERβ: reporter gene assay, HEK293T
[2] = test system: MCF-7 breast cancer cells; assay: antiproliferative activity, MTT assay, MCF-7; conditions: Homo sapiens, MCF7, 72 h, read-out: MCF-7 Inhibition (%)
[3] = target: T1, human ERα ligand binding domain (LBD) (Homo sapiens, UniProt P03372); assay: competitive fluorometric; conditions: relative to parent 2a (compared to 2a and 4a)
T1 sequence (P03372 311-547 limits assumed): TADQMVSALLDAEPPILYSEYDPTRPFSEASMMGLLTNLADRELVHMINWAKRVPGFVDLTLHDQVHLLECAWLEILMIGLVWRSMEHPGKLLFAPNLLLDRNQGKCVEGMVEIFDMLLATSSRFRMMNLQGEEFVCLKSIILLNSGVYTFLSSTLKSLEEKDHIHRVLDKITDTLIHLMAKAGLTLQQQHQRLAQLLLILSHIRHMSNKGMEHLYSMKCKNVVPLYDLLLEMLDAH

VERO cells = assay: toxicity to normal cells, MTT assay, VERO

human ERβ ligand binding domain (LBD), sequence (Q92731 264-498 limits assumed): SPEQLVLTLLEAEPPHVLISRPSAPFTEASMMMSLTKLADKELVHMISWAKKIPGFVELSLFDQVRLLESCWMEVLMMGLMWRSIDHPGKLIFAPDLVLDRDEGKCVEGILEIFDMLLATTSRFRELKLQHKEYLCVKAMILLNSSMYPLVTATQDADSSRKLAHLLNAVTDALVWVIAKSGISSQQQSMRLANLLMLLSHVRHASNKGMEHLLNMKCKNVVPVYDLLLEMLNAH
ERα, sequence (P03372 whole entry): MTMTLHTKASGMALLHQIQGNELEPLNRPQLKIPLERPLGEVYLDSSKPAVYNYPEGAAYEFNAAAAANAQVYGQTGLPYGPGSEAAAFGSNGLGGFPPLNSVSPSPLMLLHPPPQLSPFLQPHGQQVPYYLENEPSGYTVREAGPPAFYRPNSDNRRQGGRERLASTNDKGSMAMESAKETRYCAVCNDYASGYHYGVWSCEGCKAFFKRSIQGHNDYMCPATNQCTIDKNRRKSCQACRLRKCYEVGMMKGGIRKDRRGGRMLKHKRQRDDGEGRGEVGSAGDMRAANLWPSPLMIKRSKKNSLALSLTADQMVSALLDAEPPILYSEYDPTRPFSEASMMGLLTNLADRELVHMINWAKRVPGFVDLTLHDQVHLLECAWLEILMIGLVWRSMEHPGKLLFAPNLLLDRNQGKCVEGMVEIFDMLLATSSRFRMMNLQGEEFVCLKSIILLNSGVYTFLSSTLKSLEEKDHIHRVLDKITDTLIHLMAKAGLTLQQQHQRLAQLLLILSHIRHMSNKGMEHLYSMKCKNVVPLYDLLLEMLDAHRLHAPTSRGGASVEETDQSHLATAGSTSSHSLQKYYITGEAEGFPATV
ERβ, sequence (Q92731 whole entry): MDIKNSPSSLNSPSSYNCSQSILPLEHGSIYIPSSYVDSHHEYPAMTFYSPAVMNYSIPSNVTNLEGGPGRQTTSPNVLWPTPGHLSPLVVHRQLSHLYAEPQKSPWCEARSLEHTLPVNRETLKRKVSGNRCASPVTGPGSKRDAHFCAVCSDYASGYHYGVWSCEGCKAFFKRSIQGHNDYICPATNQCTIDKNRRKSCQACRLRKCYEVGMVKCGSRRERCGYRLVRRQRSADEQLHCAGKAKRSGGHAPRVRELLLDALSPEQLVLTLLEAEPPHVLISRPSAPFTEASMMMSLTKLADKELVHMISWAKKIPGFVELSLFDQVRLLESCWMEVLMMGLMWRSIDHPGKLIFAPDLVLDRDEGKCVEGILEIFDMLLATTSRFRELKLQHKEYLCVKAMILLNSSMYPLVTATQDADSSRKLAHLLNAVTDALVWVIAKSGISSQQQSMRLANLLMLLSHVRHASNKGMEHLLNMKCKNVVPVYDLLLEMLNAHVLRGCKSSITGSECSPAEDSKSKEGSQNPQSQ

SMILES	β/α [1]	Agonist Mode ERα Eff (%E2) (ERα)	Emax (ERβ)	inhibition at 10 µM [2]	transcriptional activity profile on ERβ (ERβ)	transcriptional activity profile on ERα (ERα; HEK293T)	EC50 (ERβ)	EC50 (ERα; read-out: Agonist Mode ERα EC50, compound alone up to 10^−5 M, HEK293T)	fold better binding to ERβ than 2a ([1]; relative to 2a)	EC50 (ERα)	ERα agonist potency, fold more potent than 2b (ERα; agonist mode, relative to 2b)	efficacy on ERα, times greater than that of estradiol (ERα; agonist mode)	fold increase in binding affinity for ERα over 2a [3]	Agonist Mode ERβ Eff (%E2) (ERβ)	Antagonist Mode ERβ Eff (%E2) (ERβ)	toxicity to healthy VERO cells (VERO cells)
Oc1ccc(-c2c[se]cc2-c2ccc(O)cc2F)c(F)c1 [Compound 4e, 3,4-Bis(2-fluoro-4-hydroxyphenyl)selenophene]	2.19	35 ± 5 %E2	17 ± 2%	0%												
Oc1ccc(-c2c[se]cc2-c2ccc(O)cc2)cc1 [Compound 4a, 3,4-Bis(4-hydroxyphenyl)selenophene]	6.28	7 ± 3 %E2	16 ± 7%	0%	antagonist											
Oc1ccc(-c2ccc(-c3ccc(O)cc3)[se]2)cc1 [Compound 2a, 2,5-Bis(4-hydroxyphenyl)selenophene]	4.70	16 ± 2 %E2	11 ± 4%	0%	partial antagonist	partial antagonist										
Cc1cc(-c2cc(Br)c(-c3ccc(O)c(C)c3)[se]2)ccc1O [Compound 6c, 3-Bromo-2,5-bis(4-hydroxy-3-methylphenyl)selenophene]	4.40	−3 ± 1 %E2	46 ± 1%	26.1%			441 nM									
Oc1ccc(-c2ccc(-c3ccc(O)cc3Cl)[se]2)c(Cl)c1 [Compound 2g, 2,5-Bis(2-chloro-4-hydroxyphenyl)selenophene]	2.07	44 ± 13 %E2	14 ± 5%	19.6%				1280 nM								
Oc1ccc(-c2ccc(-c3ccc(O)cc3F)[se]2)c(F)c1 [Compound 2f, 2,5-Bis(2-fluoro-4-hydroxyphenyl)selenophene]	4.11	68 ± 2 %E2	71 ± 1%	10.5%		full ERα agonist	170 nM		8 fold	230 nM	about 6 fold					
Cc1cc(-c2c[se]cc2-c2ccc(O)c(C)c2)ccc1O [Compound 4c, 3,4-Bis(4-hydroxy-3-methylphenyl)selenophene]	0.87	32 ± 8 %E2	54 ± 10%	0%			1150 nM			320 nM						
Oc1ccc(-c2cc(Br)c(-c3ccc(O)cc3F)[se]2)c(F)c1 [Compound 6g, 3-Bromo-2,5-bis(2-fluoro-4-hydroxyphenyl)selenophene]	1.30	73 ± 9 %E2	50 ± 3%	8.1%												
Cc1cc(-c2ccc(-c3cc(C)c(O)c(C)c3)[se]2)cc(C)c1O [Compound 2d, 2,5-Bis(4-hydroxy-3,5-dimethylphenyl)selenophene]	>121	12 ± 4 %E2	38 ± 6%	0%	inactive	inactive										
Oc1cc(-c2ccc(-c3ccc(F)c(O)c3)[se]2)ccc1F [Compound 2j, 2,5-Bis(4-fluoro-5-hydroxyphenyl)selenophene]	3.37	25 ± 8 %E2	42 ± 10%	4.4%	partial agonist		150 nM									
Cc1cc(O)ccc1-c1c[se]cc1-c1ccc(O)cc1C [Compound 4b, 3,4-Bis(4-hydroxy-2-methylphenyl)selenophene]	24.81	19 ± 4 %E2	62 ± 8%	0%			34 nM									
Cc1cc(-c2cc(Br)c(-c3cc(C)c(O)c(C)c3)[se]2)cc(C)c1O [Compound 6d, 3-Bromo-2,5-bis(4-hydroxy-3,5-dimethylphenyl)selenophene]	0.43	16 ± 4 %E2	15 ± 6%	26.5%												
Oc1ccc(-c2cc(-c3ccc(O)cc3)c(-c3ccc(O)cc3)[se]2)cc1 [Compound 8a, 2,3,5-Tris(4-hydroxyphenyl)selenophene]	1.15	−4 ± 3 %E2	12 ± 3%	29.6%	antagonist	antagonist										
Cc1cc(O)ccc1-c1ccc(-c2ccc(O)cc2C)[se]1 [Compound 2b, 2,5-Bis(4-hydroxy-2-methylphenyl)selenophene]	1.98	157 ± 12 %E2	82 ± 7%	3.4%	agonist	superagonist	79 nM			1360 nM		1.5 times				
Cc1cc(-c2cc(-c3ccc(O)c(C)c3)c(-c3ccc(O)c(C)c3)[se]2)ccc1O [Compound 8b, 2,3,5-Tris(4-hydroxy-3-methylphenyl)selenophene]	9.92	112 ± 29 %E2	77 ± 8%	16.6%		superagonists	33 nM			320 nM						
Oc1ccc(-c2c[se]cc2-c2ccc(O)c(F)c2)cc1F [Compound 4d, 3,4-Bis(3-fluoro-4-hydroxyphenyl)selenophene]	2.67	21 ± 6 %E2	21 ± 3%	0%												
Oc1ccc(-c2cc(Br)c(-c3ccc(O)c(Cl)c3)[se]2)cc1Cl [Compound 6e, 3-Bromo-2,5-bis(3-chloro-4-hydroxyphenyl)selenophene]	0.25	−23 ± 3 %E2	27 ± 2%	11.3%												
Oc1cc(-c2cc(Br)c(-c3ccc(F)c(O)c3)[se]2)ccc1F [Compound 6f, 3-Bromo-2,5-bis(4-fluoro-5-hydroxyphenyl)selenophene]	0.28	226 ± 28 %E2	31 ± 7%	0%		superagonist	300 nM			120 nM		2.2 times				
Oc1ccc(-c2cc(Br)c(-c3ccc(O)cc3)[se]2)cc1 [Compound 6a, 3-Bromo-2,5-bis(4-hydroxyphenyl)selenophene]	2.32	69 ± 11 %E2	40 ± 5%	0%	partial agonist	full agonist	13 nM			15 nM			8 fold and ~10 fold			
Oc1ccc(-c2ccc(-c3ccc(O)c(Cl)c3)[se]2)cc1Cl [Compound 2h, 2,5-Bis(3-chloro-4-hydroxyphenyl)selenophene]	5.10	49 ± 3 %E2	22 ± 8%	5.3%		partial agonist				40 nM						
Oc1ccc(F)c(-c2ccc(-c3cc(O)ccc3F)[se]2)c1 [Compound 2i, 2,5-Bis(2-fluoro-5-hydroxyphenyl)selenophene]	0.90	25 ± 8 %E2	55 ± 5%	17.9%	partial agonist		130 nM									
CC/C(=C(\c1ccc(O)cc1)c1ccc(OCCN(C)C)cc1)c1ccccc1 [Compound 4OHT, 4-hydroxytamoxifen, reference compound]				81.7%										−1 ± 1 %E2	−20 ± 2 %E2	considerable toxicity
Cc1cc(-c2ccc(-c3ccc(O)c(C)c3)[se]2)ccc1O [Compound 2c, 2,5-Bis(4-hydroxy-3-methylphenyl)selenophene]	>94	33 ± 6 %E2	24 ± 3%	9.3%	inactive	inactive										
Cc1cc(O)cc(C)c1-c1ccc(-c2c(C)cc(O)cc2C)[se]1 [Compound 2e, 2,5-Bis(4-hydroxy-2,6-dimethylphenyl)selenophene]	1.00	−7 ± 3 %E2	60 ± 4%	19.3%			434 nM									
Cc1cc(-c2cc(-c3cc(C)c(O)c(C)c3)c(-c3cc(C)c(O)c(C)c3)[se]2)cc(C)c1O [Compound 8c, 2,3,5-Tris(4-hydroxy-3,5-dimethylphenyl)selenophene]	0.55	74 ± 4 %E2	69 ± 5%	75.3%			17 nM			270 nM						nontoxic

Reference: article PMC5405701 (ChemMedChem, 2017)
